{
  "source": "patent US4973603A",
  "about": "“Platelet activating factor antagonist and methods of use therefor” (priority 1989, dated 1990)",
  "key": {"gastric mucosa [1]": {"test_system": "gastric mucosa", "conditions": "1 hour; for Mean Score: scale 0-3 (0 = normal mucosa)", "protocol": "Robert and Szabo, In: Selye's Guide to Stress Research, (Vol. 2, A. Selye, Ed.) New York; Van Nostrand Reinhold Co., pp. 22-46 (1983); and Robert et al., Gastroenterology, 77:433-443 (1979). Experimental groups of 5-11 rats (Charles River CD) were fasted for 24 hours before the administration of either aspirin, Formula I or indomethacin by a rubber stomach tube (Rusch No. 8). The animals were killed 1 hour later by carbon dioxide asphyxiation. At that time, 4 ml of 10% aqueous buffered formaldehyde (formalin) was injected directly into the stomach of each animal. […] After 5 minutes of in situ fixation, the stomach and proximal duodenum were removed, opened along the greater curvature, pinned on a cork with mucosa upward, and immersed in 10% formaldehyde until further processing. Szabo, S. et al., J. Pharmacol. Meth., 13:59-66 (1985). The gastric lesions were then evaluated by direct visual inspection.\nFor comparative purposes, a semiquantitative scale of 0-3 was used to assess the extent of gastric mucosal lesions. Szabo et al., Science, 214:200-202 (1981); and Szabo et al., Gastroenterology, 85:1384-1390 (1983). According to this scale, a score of 0 indicates a normal mucosa; 1 represents the appearance of between 1 and 4 small petechiae; 2 indicates the presence of 5 or more petechiae or hemmorhagic streaks up to 4 mm in length; 3 represents the appearance of erosions longer than 5 mm or confluent hemmorrhages."}, "arachidonic acid": {"test_system": "arachidonic acid", "experiment": "The Mouse Ear Edema Test (arachidonic acid-induced skin edema)", "type": "in vivo, mouse (Charles River CD-1, female)", "conditions": "1 hour before arachidonic acid (0.5 mg)", "source_text": "The direct application of arachidonic acid to skin, such as the mouse ear, produces an edematous response which is believed to be mediated by eicosanoids resulting from the actions of both cyclooxygenase and lipoxygenase systems. J. M. Young, D. A. Spires, C. J. Bedford, B. Wagner, S. J. Ballaron and L. M. DeYoung, J. Invest. Dermatol. 82:367-371 (1984); E. E. Opas, R. J. Bonney, and J. L. Hanes J. Invest. Dermatol. 84:253-256 (1985). PAF has been reported to cause the release of arachidonic acid, and as a result, gives rise to increased levels of eicosanoids in the exposed tissues. F. H. Chilton, J. T. Flaherty, C. E. Walsh, M. J. Thomas, R. L. Wykle, L. R. DeChatelet and B. M. Waite, J. Biol. Chem., 257:5402-5407 (1982). Thus, the mouse ear edema test can be used to discover substances which antagonize the effects of PAF.\nThe test drugs were dissolved in 10 μl ethanol and applied to the inner surface of the left ears of Charles River CD-1 female mice. Control values were obtained by applying 10 μl of ethanol to the right ear so that each mouse served as its own control. One hour later, arachidonic acid (0.5 mg/ear in 10 μl ethanol) was applied to both ears and allowed to act on the skin for one hour. The mice were then killed by cervical dislocation and the ears removed so that all tissue samples were of equivalent areas. The extent of edema in each sample was measured by weighing on an analytical balance."}, "[2]": {"test_system": "platelet activating factor (PAF)", "experiment": "PAF Induced Mortality", "type": "in vivo, mouse (Charles River CD-1, female)", "conditions": "for protective effect (in words): compared with Formula I", "protocol": "The induction of mortality by the injection of low doses of PAF into mice has been described as a method for assessing the effectiveness of agents to antagonize the anaphylactic properties of PAF by J. M. Young, P. J. Maloney, S. W. Jubb and J. S. Clarke, in Prostaglandins, 30:545-551 (1985). Charles River CD-1 female mice (25-30 g) were given intraperitoneal injections of PAF (10 μg) dissolved in 100 μl of 5% ethanol-saline. […] Test drugs were orally administered in 50 μl of peanut oil one hour prior to PAF injection. Control mice were dosed with vehicle only. Mortality was assessed by counting survivors at one hour, two hours, and twenty four hours after the PAF injection."}, "gastric mucosa [3]": {"test_system": "gastric mucosa", "conditions": "common adverse effect of consumption; cited from earlier work"}, "[4]": {"test_system": "platelet activating factor (PAF)", "experiment": "PAF Induced Paw Edema in the Mouse", "type": "in vivo, mouse (Charles River CD-1, female)", "conditions": "1 hour before PAF (1 ug/paw), 15 min after PAF", "protocol": "The experimental procedure was adapted from Calhoun et al., Agents & Actions, 21:306-309 (1987). Charles River CD-1 female mice (20-25 G) were given a dose of Formula I, or phenidone, using peanut oil as a carrier. Control mice were given doses of the carrier alone. The drugs were administered orally in a 50 μl volume of peanut oil. One hour later, 1.0 μg of PAF dissolved in 50 μl of 5% ethanol-saline was injected subcutaneously into the plantar surface of the right hind paw. The volume of this injected foot to the level of the lateral malleous was measured by water displacement immediately before drug administration and again 15 minutes after PAF injection.\nThe effectiveness of each compound was analyzed in the following manner. The individual paw volumes were compared by a paired t test analysis in which predrug paw volumes were compared to paw volumes 15 minutes after PAF injection to determine the level of statistical significance. The percent inhibition of edema volume was obtained from the ratio of the mean predrug volume to the mean volume after PAF."}, "[5]": {"test_system": "platelet activating factor (PAF)", "conditions": "reported by Calhoun et al., Agents & Actions, 21:306-309 (1987); cited from earlier work"}, "[6]": {"conditions": "20 mg/kg oral, 1 hr after PAF (10 μg i.p.)"}, "[7]": {"conditions": "20 mg/kg oral, 2 hrs after PAF (10 μg i.p.)"}, "[8]": {"conditions": "20 mg/kg oral, 24 hrs after PAF (10 μg i.p.)"}, "[9]": {"conditions": "40 mg/kg oral, 1 hr after PAF (10 μg i.p.)"}, "[10]": {"conditions": "40 mg/kg oral, 2 hrs after PAF (10 μg i.p.)"}, "[11]": {"conditions": "40 mg/kg oral, 24 hrs after PAF (10 μg i.p.)"}},
  "note": "Where two headings read alike, the source gives them in different places.",
  "data": [
    {"smiles": "CC(=O)Oc1ccccc1C(=O)O", "note": "[Aspirin, aspirin]", "values": [
      {"measurement": "Mean Score", "setting": "gastric mucosa [1]; 100 mg/kg by stomach tube", "result": 1.9}
    ]},
    {"smiles": "COc1ccc2c(c1)c(CC(=O)O)c(C)n2C(=O)c1ccc(Cl)cc1", "note": "[Indomethacin, indomethacin]", "values": [
      {"measurement": "Incidence (rats with lesions/total tested)", "setting": "gastric mucosa [1]; 10 mg/kg by stomach tube", "result": "2/5"},
      {"measurement": "Mean Score", "setting": "gastric mucosa [1]; 10 mg/kg by stomach tube", "result": 0.6},
      {"measurement": "Incidence (rats with lesions/total tested)", "setting": "gastric mucosa [1]; 20 mg/kg by stomach tube", "result": "6/11"},
      {"measurement": "Mean Score", "setting": "gastric mucosa [1]; 20 mg/kg by stomach tube", "result": 0.77},
      {"measurement": "% Inhibition of Edema", "setting": "arachidonic acid; 0.05 mg/ear topical", "result": 24.1, "unit": "%"},
      {"measurement": "% Inhibition of Edema", "setting": "arachidonic acid; 0.10 mg/ear topical", "result": 21.8, "unit": "%"}
    ]},
    {"smiles": "COc1ccc2cc([C@H](C)C(=O)O)ccc2c1", "note": "[Naproxen, naproxen, reference compound]", "values": [
      {"measurement": "Survivors (%)", "setting": "[2]; [6]", "result": 40, "unit": "%"},
      {"measurement": "Survivors/N", "setting": "[2]; [6]", "result": "4/10"},
      {"measurement": "Survivors (%)", "setting": "[2]; [7]", "result": 40, "unit": "%"},
      {"measurement": "Survivors/N", "setting": "[2]; [7]", "result": "4/10"},
      {"measurement": "Survivors (%)", "setting": "[2]; [8]", "result": 20, "unit": "%"},
      {"measurement": "Survivors/N", "setting": "[2]; [8]", "result": "2/10"},
      {"measurement": "Survivors (%)", "setting": "[2]; [9]", "result": 100, "unit": "%"},
      {"measurement": "Survivors/N", "setting": "[2]; [9]", "result": "5/5"},
      {"measurement": "Survivors (%)", "setting": "[2]; [10]", "result": 60, "unit": "%"},
      {"measurement": "Survivors/N", "setting": "[2]; [10]", "result": "3/5"},
      {"measurement": "Survivors (%)", "setting": "[2]; [11]", "result": 60, "unit": "%"},
      {"measurement": "Survivors/N", "setting": "[2]; [11]", "result": "3/5"},
      {"measurement": "protective effect (in words)", "setting": "[2]", "result": "less protective than Formula I, particularly at longer time intervals"},
      {"measurement": "gastrointestinal damage (in words)", "setting": "gastric mucosa [3]", "result": "gastrointestinal damage, generally manifested as bleeding and/or frank ulceration"}
    ]},
    {"smiles": "O=C1CCN(c2ccccc2)N1", "note": "[Phenidone, phenidone, reference compound]", "values": [
      {"measurement": "% Inhibition of Edema", "setting": "[4]; 40 mg/kg oral", "result": 20.4, "unit": "%"},
      {"measurement": "% Inhibition of Edema", "setting": "[4]; 80 mg/kg oral", "result": 35.7, "unit": "%"},
      {"measurement": "Survivors (%)", "setting": "[2]; [9]", "result": 20, "unit": "%"},
      {"measurement": "Survivors/N", "setting": "[2]; [9]", "result": "1/5"},
      {"measurement": "Survivors (%)", "setting": "[2]; [10]", "result": 20, "unit": "%"},
      {"measurement": "Survivors/N", "setting": "[2]; [10]", "result": "1/5"},
      {"measurement": "Survivors (%)", "setting": "[2]; [11]", "result": 20, "unit": "%"},
      {"measurement": "Survivors/N", "setting": "[2]; [11]", "result": "1/5"},
      {"measurement": "protective effect (in words)", "setting": "[2]", "result": "less protective than Formula I, particularly at longer time intervals"},
      {"measurement": "% Inhibition of Edema", "setting": "arachidonic acid; 0.063 mg/ear topical", "result": 15.4, "unit": "%"},
      {"measurement": "% Inhibition of Edema", "setting": "arachidonic acid; 0.13 mg/ear topical", "result": 26.6, "unit": "%"},
      {"measurement": "% Inhibition of Edema", "setting": "arachidonic acid; 0.25 mg/ear topical", "result": 24.4, "unit": "%"},
      {"measurement": "effectiveness against PAF edema (in words)", "setting": "[5]", "result": "effective against PAF edema"},
      {"measurement": "gastrointestinal damage (in words)", "setting": "gastric mucosa [3]", "result": "gastrointestinal damage, generally manifested as bleeding and/or frank ulceration"}
    ]}
  ]
}
